Results from patent US9284324B2, “Phenylpyrrole derivative” (TAISHO PHARMACEUTICAL CO., LTD, priority 2011, dated 2016).
Where “and” joins values, the source holds several entries; their conditions need not be identical. Equal values may be shown once.

Key:
[1] = biological target: T1, H3 receptor (Rattus norvegicus, UniProt Q9QYN8); experiment: Rat H3 receptor binding test (N-α-methyl[3H]histamine); conditions: rat frontal cortex membrane fraction, N-α-methyl[3H]histamine 0.75 nM
T1 construct: The frontal cortex dissected from rats was homogenized; from tissue; host or cells: rat frontal cortex membrane fraction
Description: (Test 1: Rat H3 Receptor Binding Test)
The frontal cortex dissected from rats was homogenized with a Teflon homogenizer in a 50 mM Tris-HCl buffer solution (pH 7.4) containing a protease inhibitor (Complete EDTA-free; Roche Diagnostics) and 5 mM EDTA. The homogenate was centrifuged at 48,000×g for 15 minutes. The supernatant was removed and the pellet was suspended in a 50 mM Tris-HCl buffer solution (pH 7.4) containing 5 mM EDTA and centrifuged at 48,000×g for 15 minutes. The supernatant was removed and the pellet was suspended in a 50 mM Tris-HCl buffer solution (pH 7.4) containing 5 mM EDTA to give a membrane fraction. The membrane fraction (the protein content in the final reaction mixture: 75 μg), N-α-methyl[^3H]histamine (PerkinElmer; final concentration: 0.75 nM) and a test drug were mixed and subjected to reaction at room temperature for an hour. After the end of the reaction, the reaction mixture was suction filtered through a 96-well GF/C filter plate pretreated with 0.3% polyethyleneimine; the filters were then washed five times with a 50 mM Tris-HCl buffer solution (pH 7.4) containing 5 mM EDTA. After the washing, the filters were dried and a scintillator was added to measure the residual radioactivity on the filter with TopCount (PerkinElmer).
The residual radioactivity in the presence of 10 μM thioperamide was taken as indicative of nonspecific binding and the difference from the residual radioactivity in the absence of thioperamide was taken as indicative of specific binding. Each of the test drugs was dissolved and diluted in DMSO at varying concentrations to plot a dose-response curve from the corresponding residual radio activities; the concentration of test drug that inhibited the specific binding by 50% (IC50) was determined from this curve.

[2] = biological target: T2, histamine H3 receptor (Rattus norvegicus, UniProt Q9QYN8); experiment: [35S]GTP-γ-S binding test; format: biochemical; conditions: rat frontal cortex membrane fraction, R(−)-α-methyl histamine 300 nM, [35S]GTP-γ-S 0.3 nM
T2 construct: The frontal cortex dissected from rats was homogenized; from tissue; host or cells: rat frontal cortex membrane fraction
Description: (Test 2: [^35S]GTP-γ-S Binding Test)
The frontal cortex dissected from rats was homogenized with a Teflon homogenizer in a 30 mM Tris-HCl buffer solution (pH 7.4) containing 2.5 mM calcium chloride dihydrate. The homogenate was centrifuged at 48,000×g for 15 minutes. The supernatant was removed and the pellet was suspended in a 30 mM Tris-HCl buffer solution (pH 7.4) containing 2.5 mM calcium chloride dihydrate and centrifuged at 48,000×g for 15 minutes. The supernatant was removed and the pellet was suspended in a 30 mM Tris-HCl buffer solution (pH 7.4) containing 2.5 mM calcium chloride dihydrate and after incubation at 37° C. for 30 minutes, the suspension was centrifuged at 48,000×g for 15 minutes. The resulting supernatant was removed and the pellet was suspended in a 20 mM HEPES buffer solution (pH 7.4) containing 100 mM sodium chloride and 10 mM magnesium chloride to give a membrane fraction. […] After the washing, the filters were dried and a scintillator was added to measure the residual radioactivity on the filter with TopCount (PerkinElmer).
The residual radioactivity in the absence of R(−)-α-methyl histamine was taken as indicative of nonspecific binding and the difference from the residual radioactivity in the presence of R(−)-α-methyl histamine was taken as indicative of specific binding. […]

[3] = Rat in vivo pharmacokinetic study; design: species or system SD rats; conditions: for concentration at 1 h / Kp at 1 h: SD, rat, in vivo, po, 3 mg/kg
Description: (Test 3: Rat In Vivo Pharmacokinetic Study)
SD rats were given a single oral administration of Compound No. 3, 4 or 7 at a dose of 3 mg/kg and an hour after the administration, the compound's distribution among the plasma, brain, and cerebrospinal fluid was checked. Quantification was effected by a high-performance chromatography/tandem mass spectrometer API 4000 (LC-MS/MS; AB Sciex). As it turned out, Compound Nos. 3, 4 and 7 had good brain/plasma movement ratios of 4.5, 2.9 and 2.2, respectively, with the corresponding intracerebral concentrations of 78.2 ng/g, 7.06 ng/g and 408 ng/g.

[4] = biological target: T3, P-glycoprotein (Human MDR1) (Homo sapiens, UniProt P08183); experiment: P-glycoprotein substrate recognition test; format: in vitro ADME; conditions: ratio of apical→basal and basal→apical membrane permeation coefficients; for efflux ratio at 10 μM: human, LLC-PK1, LLC-GA5-COL300 cells on transwell
T3 construct: expressed in transfected cells; host or cells: LLC-GA5-COL300 (derived from pig kidney LLC-PK1)
Description: (Test 4: P-Glycoprotein Substrate Recognition Test)
LLC-GA5-COL300 cells (Human MDR1 expressing system derived from pig kidney derived, cultured renal epithelial cell line LLC-PK1) were cultured on a transwell. Immediately before the test, the culture medium was replaced by Hank's balanced salt solution (HBSS) and the test was then conducted. A solution of an assay compound adjusted to a final concentration of 10 μM was added to the donor side of LLC-GA5-COL300 cells and after the passage of a predetermined period of time, a specified quantity of […] was sampled from the acceptor side. The concentration of the assay compound in the sample was measured by LC-MS/MS. From the amounts of the compound that accumulated and passed into the acceptor side, membrane permeation coefficients (×10^−6 cm/sec) were calculated for apical→basal and basal→apical directions and their relative ratio (efflux ratio) was determined to evaluate the P-glycoprotein substrate recognition.

[5] = cerebrospinal fluid/plasma movement ratio
[6] = SD rats, single oral 3 mg/kg, an hour after administration

T3 sequence (P08183 whole entry): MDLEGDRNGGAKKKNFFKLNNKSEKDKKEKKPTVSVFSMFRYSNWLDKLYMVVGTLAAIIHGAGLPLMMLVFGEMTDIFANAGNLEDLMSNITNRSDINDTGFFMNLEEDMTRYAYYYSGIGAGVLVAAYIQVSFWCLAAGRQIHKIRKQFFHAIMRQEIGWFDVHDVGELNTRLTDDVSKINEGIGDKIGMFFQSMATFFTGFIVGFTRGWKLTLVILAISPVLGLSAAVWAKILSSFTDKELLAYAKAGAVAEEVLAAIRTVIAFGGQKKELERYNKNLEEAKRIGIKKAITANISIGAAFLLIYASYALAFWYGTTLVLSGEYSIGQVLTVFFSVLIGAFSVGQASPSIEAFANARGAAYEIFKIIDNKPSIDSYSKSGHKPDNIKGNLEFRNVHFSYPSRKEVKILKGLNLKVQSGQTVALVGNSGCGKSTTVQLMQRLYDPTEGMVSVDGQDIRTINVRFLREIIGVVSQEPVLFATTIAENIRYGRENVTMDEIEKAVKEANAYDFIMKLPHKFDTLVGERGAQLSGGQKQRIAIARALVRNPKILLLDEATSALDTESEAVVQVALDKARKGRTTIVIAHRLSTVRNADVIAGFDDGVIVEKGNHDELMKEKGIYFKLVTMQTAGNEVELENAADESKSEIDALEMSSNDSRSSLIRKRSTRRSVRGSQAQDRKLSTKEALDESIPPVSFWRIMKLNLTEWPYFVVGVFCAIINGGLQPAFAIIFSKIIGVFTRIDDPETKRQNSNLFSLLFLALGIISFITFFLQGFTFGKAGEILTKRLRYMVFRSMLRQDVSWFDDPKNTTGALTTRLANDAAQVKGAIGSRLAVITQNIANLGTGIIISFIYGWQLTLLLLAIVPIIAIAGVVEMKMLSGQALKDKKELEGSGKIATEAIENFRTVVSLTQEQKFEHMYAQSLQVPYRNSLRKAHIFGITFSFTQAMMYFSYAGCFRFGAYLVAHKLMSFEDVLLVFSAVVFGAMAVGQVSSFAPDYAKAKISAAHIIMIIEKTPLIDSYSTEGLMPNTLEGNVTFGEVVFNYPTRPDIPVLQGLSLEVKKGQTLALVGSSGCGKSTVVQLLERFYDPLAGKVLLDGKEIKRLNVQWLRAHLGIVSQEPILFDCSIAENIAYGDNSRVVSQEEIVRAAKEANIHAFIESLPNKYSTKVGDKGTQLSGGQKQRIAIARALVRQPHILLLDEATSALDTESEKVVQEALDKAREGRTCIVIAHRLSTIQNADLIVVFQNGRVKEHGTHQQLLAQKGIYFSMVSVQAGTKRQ
T1 sequence (Q9QYN8 whole entry): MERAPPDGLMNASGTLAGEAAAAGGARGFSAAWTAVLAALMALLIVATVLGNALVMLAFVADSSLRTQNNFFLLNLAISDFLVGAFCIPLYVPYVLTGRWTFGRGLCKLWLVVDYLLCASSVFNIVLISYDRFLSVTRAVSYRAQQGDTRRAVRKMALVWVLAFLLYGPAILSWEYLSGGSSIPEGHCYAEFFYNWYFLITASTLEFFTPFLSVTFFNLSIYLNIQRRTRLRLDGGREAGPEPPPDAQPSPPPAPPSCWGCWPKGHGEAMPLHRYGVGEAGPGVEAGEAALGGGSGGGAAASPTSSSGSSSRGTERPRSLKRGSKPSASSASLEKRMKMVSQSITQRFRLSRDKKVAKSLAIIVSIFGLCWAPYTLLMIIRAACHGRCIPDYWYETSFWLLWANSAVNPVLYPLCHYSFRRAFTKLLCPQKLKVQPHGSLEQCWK
T2 sequence (Q9QYN8 whole entry): as above

IC50 [1] | efflux ratio at 10 μM [4] | Molecule | further results
1.7 nM | – | CC(C)(C)N1CCC(Oc2ccc(-n3ccc(C(=O)N4CCCC4)c3)cc2)CC1 [Compound No. 19, (1-{4-[(1-tert-butylpiperidin-4-yl)oxy]phenyl}-1H-pyrrol-3-yl)(pyrrolidin-1-yl)methanone] | –
21 nM | – | CNC(=O)c1ccn(-c2ccc(OC3CCN(C(C)(C)C)CC3)cc2)c1 [Compound No. 20, 1-{4-[(1-tert-butylpiperidin-4-yl)oxy]phenyl}-N-methyl-1H-pyrrole-3-carboxamide] | –
3.2 nM | 1.2 | CN(C)C(=O)c1ccn(-c2ccc(OC3CCN(C4CCC4)CC3)cc2)c1 [compound 6] | –
5.9 nM | 1 | CNC(=O)c1ccn(-c2ccc(OC3CCN(C4CCC4)CC3)cc2)c1 [compound 7, 1-{4-[(1-cyclobutylpiperidin-4-yl)oxy]phenyl}-N-methyl-1H-pyrrole-3-carboxamide] | IC50 [2]: ≤ 100 nM; concentration at 1 h [3]: 408 ng/g and 50.5 ng/mL; Kp at 1 h ([3]; brain/plasma movement ratio): 2.2; Kp at 1 h [3, 5]: 0.3
9.5 nM | 1.6 | NC(=O)c1ccn(-c2ccc(OC3CCN(C4CCC4)CC3)cc2)c1 [compound 8, 1-{4-[(1-cyclobutylpiperidin-4-yl)oxy]phenyl}-1H-pyrrole-3-carboxamide] | –
2.5 nM | 1.6 | O=C(c1ccn(-c2ccc(OC3CCN(C4CCC4)CC3)cc2)c1)N1CCOCC1 [compound 9, (1-{4-[(1-cyclobutylpiperidin-4-yl)oxy]phenyl}-1H-pyrrol-3-yl)(morpholin-4-yl)methanone] | –
6.8 nM | – | C[C@@H]1CN(C(=O)c2ccn(-c3ccc(OC4CCN(C5CCC5)CC4)cc3)c2)C[C@H](C)O1 [compound 10] | –
1 nM | – | O=C(c1ccn(-c2ccc(OC3CCN(C4CCC4)CC3)cc2)c1)N1CC2(COC2)C1 [compound 11, (1-{4-[(1-cyclobutylpiperidin-4-yl)oxy]phenyl}-1H-pyrrol-3-yl)(2-oxa-6-azaspiro[3.3]hepta-6-yl)methanone] | –
5.2 nM | – | CC(C)(C)NC(=O)c1ccn(-c2ccc(OC3CCN(C4CCC4)CC3)cc2)c1 [compound 12, N-tert-butyl-1-{4-[(1-cyclobutylpiperidin-4-yl)oxy]phenyl}-1H-pyrrole-3-carboxamide] | –
3.7 nM | – | O=C(NC1CCC1)c1ccn(-c2ccc(OC3CCN(C4CCC4)CC3)cc2)c1 [compound 13, N-cyclobutyl-1-{4-[(1-cyclobutylpiperidin-4-yl)oxy]phenyl}-1H-pyrrole-3-carboxamide] | –

Further lines, the molecule ahead of its results:

Molecule | IC50 [1] | efflux ratio at 10 μM [4] | further results
COC(=O)c1ccn(-c2ccc(OC3CCN(C4CCC4)CC3)cc2)c1 [Compound No. 1, methyl 1-{4-[(1-cyclobutylpiperidin-4-yl)oxy]phenyl}-1H-pyrrole-3-carboxylate] | 12 nM | – | –
O=C(O)c1ccn(-c2ccc(OC3CCN(C4CCC4)CC3)cc2)c1 [Compound No. 2, 1-{4-[(1-cyclobutylpiperidin-4-yl)oxy]phenyl}-1H-pyrrole-3-carboxylic acid] | 34 nM | – | –
O=C(c1ccn(-c2ccc(OC3CCN(C4CCC4)CC3)cc2)c1)N1CCC1 [Compound No. 3, azetidin-1-yl (1-{4-[(1-cyclobutylpiperidin-4-yl)oxy]phenyl}-1H-pyrrol-3-yl)methanone] | 1.7 nM | 1.4 | IC50 [2]: ≤ 100 nM; concentration at 1 h [3]: 78.2 ng/g and 5.75 ng/mL; Kp at 1 h ([3]; brain/plasma movement ratio): 4.5; Kp at 1 h [3, 5]: 0.3
Cc1cc(C(=O)N2CCCC2)c(C)n1-c1ccc(OC2CCN(C3CCC3)CC2)cc1 [Compound No. 15, (1-{4-[(1-cyclobutylpiperidin-4-yl)oxy]phenyl}-2,5-dimethyl-1H-pyrrol-3-yl)(pyrrolidin-1-yl)methanone] | 6.6 nM | – | –
C[C@@H]1CCCN1CCCOc1ccc(-n2ccc(C(=O)N3CCCC3)c2)cc1 [Compound No. 16, [1-(4-{3-[(2R)-2-methylpyrrolidin-1-yl]propoxy}phenyl)-1H-pyrrol-3-yl](pyrrolidin-1-yl)methanone] | 1.5 nM | 3.1 | –
CC(C)N1CCC(Oc2ccc(-n3ccc(C(=O)N4CCCC4)c3)cc2)CC1 [Compound No. 17, (1-{4-[(1-isopropylpiperidin-4-yl)oxy]phenyl}-1H-pyrrol-3-yl)(pyrrolidin-1-yl)methanone] | 1.1 nM | – | –
CNC(=O)c1ccn(-c2ccc(OC3CCN(C(C)C)CC3)cc2)c1 [Compound No. 18, 1-{4-[(1-isopropylpiperidin-4-yl)oxy]phenyl}-N-methyl-1H-pyrrole-3-carboxamide] | 38 nM | – | –
(1-{4-[(1-cyclobutylpiperidin-4-yl)oxy]phenyl}-1H-pyrrol-3-yl)(piperidin-1-yl)methanol [compound 5] | 3.2 nM | – | –
(1-{4-[(1-cyclobutylpiperidin-4-yl)oxy]phenyl}-1H-pyrrol-3-yl)(pyrrolidin-1-yl)methanol [compound 4] | 1.1 nM | – | brain/plasma movement ratio [3, 6]: 2.9; intracerebral concentration [3, 6]: 7.06 ng/g; Efflux ratio ([4]; LLC-GA5-COL300 cells on transwell, 10 μM): 1.3
